How the values were obtained:
Assay type in all cases: in vivo
[1] = test system: Japanese bulrush (Scirpus juncoides Roxb.); test: Test Example 1: herbicidal effect by soil application to paddy field; details: paddy field soil application; active ingredient 1,000 g per 1 hectare; wettable powder added dropwise to water surface the day after sowing; examined on the 21st day after application
Outline: (§1)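 Under greenhouse conditions, seeds sown on puddled paddy soil in 100 cm2 pots under 3 cm of standing water received the test compound; injury was assessed with a standard scoring scheme three weeks (day 21) after treatment.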

[2] = test system: early watergrass (Echinochloa oryzicola Vasing); test: as above; details: paddy field soil application; active ingredient 1,000 g per 1 hectare; wettable powder added dropwise to water surface the day after sowing; examined on the 21st day after application
Outline: as §1

[3] = test system: heartshape false pickerelweed (Monochoria vaginalis (Burm.f.) C.Presl); test: as above; details: paddy field soil application; active ingredient 1,000 g per 1 hectare; wettable powder added dropwise to water surface the day after sowing; examined on the 21st day after application
Outline: as §1

[4] = test system: barnyardgrass (Echinochloa crus-galli (L.) P. Beauv. var. crus-galli); test: Test Example 2: herbicidal effect by soil application to upland field; details: soil surface spray, upland field soil, 1,000 g active ingredient per hectare, 21st day after application
Outline: (§2)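 A standard visual rating of herbicidal effect, made 21 days after treatment, gives the value. Treatment consisted of a uniform spray of water-diluted wettable powder on the soil covering newly sown seeds, equivalent to 1,000 g active ingredient and 1,000 liters per hectare.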

[5] = test system: green foxtail (Setaria viridis (L.) P. Beauv.); test: as above; details: soil surface spray, upland field soil, 1,000 g active ingredient per hectare, 21st day after application
Outline: as §2

[6] = test system: slender amaranth (Amaranthus viridis L.); test: as above; details: soil surface spray, upland field soil, 1,000 g active ingredient per hectare, 21st day after application
Outline: as §2

[7] = test system: velvetleaf (Abutilon theophrasti medicus); test: as above; details: soil surface spray, upland field soil, 1,000 g active ingredient per hectare, 21st day after application
Outline: as §2

[8] = test system: barnyardgrass (Echinochloa crus-galli (L.) P. Beauv. var. crus-galli); test: Test Example 3: herbicidal effect by application to upland field (foliage treatment); details: foliage treatment, 1,000 g active ingredient per 1 hectare, 14th day after application, greenhouse
Outline: (§3)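 Read-out is a visual herbicidal-effect grade on a standard scale, taken on the 14th day after a single foliar spray. The spray was wettable powder diluted in water, 1,000 g active ingredient/ha at 1,000 L/ha, applied to greenhouse plants two weeks after sowing.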

[9] = test system: green foxtail (Setaria viridis (L.) P. Beauv.); test: as above; details: foliage treatment, 1,000 g active ingredient per 1 hectare, 14th day after application, greenhouse
Outline: as §3

[10] = test system: slender amaranth (Amaranthus viridis L.); test: as above; details: foliage treatment, 1,000 g active ingredient per 1 hectare, 14th day after application, greenhouse
Outline: as §3

[11] = test system: velvetleaf (Abutilon theophrasti medicus); test: as above; details: foliage treatment, 1,000 g active ingredient per 1 hectare, 14th day after application, greenhouse
Outline: as §3

With `N#Cc1ccc(Cn2c(C(F)(F)F)ccc(C(=O)C3=C(O)CCCC3=O)c2=O)cc1` [I-119] the “herbicidal effect, Scirpus juncoides Roxb.” value [1] was 5 (90% or more of herbicidal effect and crop phytotoxicity), the “herbicidal effect, Echinochloa oryzicola Vasing” value [2] was 5 (90% or more of herbicidal effect and crop phytotoxicity) and the “herbicidal effect, Monochoria vaginalis (Burm. f.) C. Presl” value (from here on “herbicidal effect, Monochoria vaginalis”) [3] was 5 (90% or more of herbicidal effect and crop phytotoxicity). For the same compound, the “herbicidal effect (index), Barnyardgrass” value [4] was 5 (90% or more of herbicidal effect and crop phytotoxicity), the “herbicidal effect (index), Green Foxtail” value [5] was 5 (90% or more of herbicidal effect and crop phytotoxicity) and the “herbicidal effect (index), Slender Amaranth” value [6] was 5 (90% or more of herbicidal effect and crop phytotoxicity). For the same compound, the “herbicidal effect (index), Velvetleaf” value [7] was 5 (90% or more of herbicidal effect and crop phytotoxicity), the “herbicidal effect, Barnyardgrass” value [8] was 5 (90% or more of herbicidal effect and crop phytotoxicity) and the “herbicidal effect, Green Foxtail” value [9] was 5 (90% or more of herbicidal effect and crop phytotoxicity). The “herbicidal effect, Slender Amaranth” value [10] was 5 (90% or more of herbicidal effect and crop phytotoxicity) and the “herbicidal effect, Velvetleaf” value [11] was 5 (90% or more of herbicidal effect and crop phytotoxicity).
With `COC(Cn1c(C(F)(F)F)ccc(C(=O)C2=C(O)C3CCC(C3)C2=O)c1=O)OC` (stereo not shown) [III-25] the “herbicidal effect, Scirpus juncoides Roxb.” value [1] was 5 (90% or more of herbicidal effect and crop phytotoxicity), the “herbicidal effect, Echinochloa oryzicola Vasing” value [2] was 5 (90% or more of herbicidal effect and crop phytotoxicity) and the “herbicidal effect, Monochoria vaginalis” value [3] was 5 (90% or more of herbicidal effect and crop phytotoxicity). For the same compound, the “herbicidal effect (index), Barnyardgrass” value [4] was 5 (90% or more of herbicidal effect and crop phytotoxicity), the “herbicidal effect (index), Green Foxtail” value [5] was 5 (90% or more of herbicidal effect and crop phytotoxicity) and the “herbicidal effect (index), Slender Amaranth” value [6] was 5 (90% or more of herbicidal effect and crop phytotoxicity). For the same compound, the “herbicidal effect (index), Velvetleaf” value [7] was 5 (90% or more of herbicidal effect and crop phytotoxicity), the “herbicidal effect, Barnyardgrass” value [8] was 5 (90% or more of herbicidal effect and crop phytotoxicity) and the “herbicidal effect, Green Foxtail” value [9] was 5 (90% or more of herbicidal effect and crop phytotoxicity). For the same compound, the “herbicidal effect, Slender Amaranth” value [10] was 5 (90% or more of herbicidal effect and crop phytotoxicity) and the “herbicidal effect, Velvetleaf” value [11] was 5 (90% or more of herbicidal effect and crop phytotoxicity).
With `CCCn1c(C(F)(F)F)ccc(C(=O)C2=C(O)C3CCC(C3)C2=O)c1=O` (stereo not shown) [III-3] the “herbicidal effect, Scirpus juncoides Roxb.” value [1] was 5 (90% or more of herbicidal effect and crop phytotoxicity), the “herbicidal effect, Echinochloa oryzicola Vasing” value [2] was 5 (90% or more of herbicidal effect and crop phytotoxicity) and the “herbicidal effect, Monochoria vaginalis” value [3] was 5 (90% or more of herbicidal effect and crop phytotoxicity). The “herbicidal effect (index), Barnyardgrass” value [4] was 5 (90% or more of herbicidal effect and crop phytotoxicity), the “herbicidal effect (index), Green Foxtail” value [5] was 5 (90% or more of herbicidal effect and crop phytotoxicity) and the “herbicidal effect (index), Slender Amaranth” value [6] was 5 (90% or more of herbicidal effect and crop phytotoxicity). For the same compound, the “herbicidal effect (index), Velvetleaf” value [7] was 5 (90% or more of herbicidal effect and crop phytotoxicity), the “herbicidal effect, Barnyardgrass” value [8] was 5 (90% or more of herbicidal effect and crop phytotoxicity) and the “herbicidal effect, Green Foxtail” value [9] was 5 (90% or more of herbicidal effect and crop phytotoxicity). The “herbicidal effect, Slender Amaranth” value [10] was 5 (90% or more of herbicidal effect and crop phytotoxicity) and the “herbicidal effect, Velvetleaf” value [11] was 5 (90% or more of herbicidal effect and crop phytotoxicity).
For `CN(C)C=Nn1c(C(F)(F)F)ccc(C(=O)C2=C(O)CCCC2=O)c1=O` [I-186], the “herbicidal effect, Scirpus juncoides Roxb.” value [1] was 5 (90% or more of herbicidal effect and crop phytotoxicity), the “herbicidal effect, Echinochloa oryzicola Vasing” value [2] was 5 (90% or more of herbicidal effect and crop phytotoxicity) and the “herbicidal effect, Monochoria vaginalis” value [3] was 5 (90% or more of herbicidal effect and crop phytotoxicity). For the same compound, the “herbicidal effect (index), Barnyardgrass” value [4] was 5 (90% or more of herbicidal effect and crop phytotoxicity), the “herbicidal effect (index), Green Foxtail” value [5] was 5 (90% or more of herbicidal effect and crop phytotoxicity) and the “herbicidal effect (index), Slender Amaranth” value [6] was 5 (90% or more of herbicidal effect and crop phytotoxicity). The “herbicidal effect (index), Velvetleaf” value [7] was 5 (90% or more of herbicidal effect and crop phytotoxicity), the “herbicidal effect, Barnyardgrass” value [8] was 5 (90% or more of herbicidal effect and crop phytotoxicity) and the “herbicidal effect, Green Foxtail” value [9] was 5 (90% or more of herbicidal effect and crop phytotoxicity). For the same compound, the “herbicidal effect, Slender Amaranth” value [10] was 5 (90% or more of herbicidal effect and crop phytotoxicity) and the “herbicidal effect, Velvetleaf” value [11] was 5 (90% or more of herbicidal effect and crop phytotoxicity).
For `COCCCn1c(C(F)(F)F)ccc(C(=O)c2cnn(C)c2OC(C)=O)c1=O` [IV-48], the “herbicidal effect, Scirpus juncoides Roxb.” value [1] was 5 (90% or more of herbicidal effect and crop phytotoxicity), the “herbicidal effect, Echinochloa oryzicola Vasing” value [2] was 5 (90% or more of herbicidal effect and crop phytotoxicity) and the “herbicidal effect, Monochoria vaginalis” value [3] was 5 (90% or more of herbicidal effect and crop phytotoxicity). For the same compound, the “herbicidal effect (index), Barnyardgrass” value [4] was 4 (70 to less than 90% of herbicidal effect and crop phytotoxicity), the “herbicidal effect (index), Green Foxtail” value [5] was 5 (90% or more of herbicidal effect and crop phytotoxicity) and the “herbicidal effect (index), Slender Amaranth” value [6] was 5 (90% or more of herbicidal effect and crop phytotoxicity). For the same compound, the “herbicidal effect (index), Velvetleaf” value [7] was 5 (90% or more of herbicidal effect and crop phytotoxicity), the “herbicidal effect, Barnyardgrass” value [8] was 5 (90% or more of herbicidal effect and crop phytotoxicity) and the “herbicidal effect, Green Foxtail” value [9] was 4 (70 to less than 90% of herbicidal effect and crop phytotoxicity). The “herbicidal effect, Slender Amaranth” value [10] was 5 (90% or more of herbicidal effect and crop phytotoxicity) and the “herbicidal effect, Velvetleaf” value [11] was 5 (90% or more of herbicidal effect and crop phytotoxicity).
In the case of `CCNn1c(C(F)(F)F)ccc(C(=O)C2=C(O)CCCC2=O)c1=O` [I-158], the “herbicidal effect, Scirpus juncoides Roxb.” value [1] is reported as 5 (90% or more of herbicidal effect and crop phytotoxicity), the “herbicidal effect, Echinochloa oryzicola Vasing” value [2] is reported as 5 (90% or more of herbicidal effect and crop phytotoxicity) and the “herbicidal effect, Monochoria vaginalis” value [3] is reported as 5 (90% or more of herbicidal effect and crop phytotoxicity). The “herbicidal effect (index), Barnyardgrass” value [4] was 5 (90% or more of herbicidal effect and crop phytotoxicity), the “herbicidal effect (index), Green Foxtail” value [5] was 5 (90% or more of herbicidal effect and crop phytotoxicity) and the “herbicidal effect (index), Slender Amaranth” value [6] was 5 (90% or more of herbicidal effect and crop phytotoxicity). For the same compound, the “herbicidal effect (index), Velvetleaf” value [7] was 5 (90% or more of herbicidal effect and crop phytotoxicity), the “herbicidal effect, Barnyardgrass” value [8] was 5 (90% or more of herbicidal effect and crop phytotoxicity) and the “herbicidal effect, Green Foxtail” value [9] was 5 (90% or more of herbicidal effect and crop phytotoxicity). The “herbicidal effect, Slender Amaranth” value [10] was 5 (90% or more of herbicidal effect and crop phytotoxicity) and the “herbicidal effect, Velvetleaf” value [11] was 5 (90% or more of herbicidal effect and crop phytotoxicity).
For `Cn1ncc(C(=O)c2ccc(C(F)(F)F)n(-c3ccc4c(c3)OCO4)c2=O)c1O` [IV-97], the “herbicidal effect, Scirpus juncoides Roxb.” value [1] was 5 (90% or more of herbicidal effect and crop phytotoxicity), the “herbicidal effect, Echinochloa oryzicola Vasing” value [2] was 5 (90% or more of herbicidal effect and crop phytotoxicity) and the “herbicidal effect, Monochoria vaginalis” value [3] was 5 (90% or more of herbicidal effect and crop phytotoxicity). The “herbicidal effect (index), Barnyardgrass” value [4] was 5 (90% or more of herbicidal effect and crop phytotoxicity), the “herbicidal effect (index), Green Foxtail” value [5] was 4 (70 to less than 90% of herbicidal effect and crop phytotoxicity) and the “herbicidal effect (index), Slender Amaranth” value [6] was 5 (90% or more of herbicidal effect and crop phytotoxicity). The “herbicidal effect (index), Velvetleaf” value [7] was 5 (90% or more of herbicidal effect and crop phytotoxicity), the “herbicidal effect, Barnyardgrass” value [8] was 5 (90% or more of herbicidal effect and crop phytotoxicity) and the “herbicidal effect, Green Foxtail” value [9] was 5 (90% or more of herbicidal effect and crop phytotoxicity). The “herbicidal effect, Slender Amaranth” value [10] was 5 (90% or more of herbicidal effect and crop phytotoxicity) and the “herbicidal effect, Velvetleaf” value [11] was 5 (90% or more of herbicidal effect and crop phytotoxicity).
For `Cc1cc(-n2c(C(F)(F)F)ccc(C(=O)C3=C(O)CCCC3=O)c2=O)no1` [I-142], the “herbicidal effect, Scirpus juncoides Roxb.” value [1] was 5 (90% or more of herbicidal effect and crop phytotoxicity), the “herbicidal effect, Echinochloa oryzicola Vasing” value [2] was 5 (90% or more of herbicidal effect and crop phytotoxicity) and the “herbicidal effect, Monochoria vaginalis” value [3] was 5 (90% or more of herbicidal effect and crop phytotoxicity). The “herbicidal effect (index), Barnyardgrass” value [4] was 5 (90% or more of herbicidal effect and crop phytotoxicity), the “herbicidal effect (index), Green Foxtail” value [5] was 5 (90% or more of herbicidal effect and crop phytotoxicity) and the “herbicidal effect (index), Slender Amaranth” value [6] was 5 (90% or more of herbicidal effect and crop phytotoxicity). For the same compound, the “herbicidal effect (index), Velvetleaf” value [7] was 5 (90% or more of herbicidal effect and crop phytotoxicity), the “herbicidal effect, Barnyardgrass” value [8] was 5 (90% or more of herbicidal effect and crop phytotoxicity) and the “herbicidal effect, Green Foxtail” value [9] was 5 (90% or more of herbicidal effect and crop phytotoxicity). The “herbicidal effect, Slender Amaranth” value [10] was 5 (90% or more of herbicidal effect and crop phytotoxicity) and the “herbicidal effect, Velvetleaf” value [11] was 5 (90% or more of herbicidal effect and crop phytotoxicity).
